For 4 compounds, ED50 results are on record in US4632990A, “Ergoline carboxamides” (Farmitalia Carlo Erba S.p.A., priority 1982, dated 1986).

Like-named read-outs stand apart in the source and are kept apart here.

This assay has as its system egg-nidation in rats. Put plainly: Nidation inhibition in rats (egg-nidation inhibitory action, indirect measure of anti-prolactin activity). The conditions noted are these: Rattus norvegicus, po, read-out: Nidation inhibition in rats, ED50. It is filed as in vivo, Sprague Dowley rats. The procedure:
Pregnant Sprague Dowley rats weighing 200-250 g were used. The compounds to be tested, dissolved in diluted mineral acids, were administered orally to groups from six to eight rats on day 5 of pregnancy. The animals were sacrificed on day 14 and the uteri were examined. The absence of implantation sites was taken as the criterion of anti-prolactin activity. Several doses were tested for the ED50 evaluation. As reference standard Bromocryptine was used.

Setting [1] is: pregnant rats, given on day 5 of pregnancy, absence of implantation sites on day 14.

For `CC(C)C[C@H]1C(=O)N2CCC[C@H]2[C@]2(O)O[C@](NC(=O)[C@@H]3C=C4c5cccc6[nH]c(Br)c(c56)C[C@H]4N(C)C3)(C(C)C)C(=O)N12` [2-bromo-α-ergocryptine, reference compound], the ED50 was determined as 5.7 mg/kg. For `Cc1cc(NC(=O)[C@@H]2C[C@@H]3c4cccc5[nH]cc(c45)C[C@H]3N(C)C2)nc(C)n1` [Example 1, N-(2', 6'-dimethyl-4'-pyrimidyl)-6-methylergoline-8β-carboxamide], the ED50 under setting [1] is 1.8 mg/kg.

For the compound `Cc1cc(NC(=O)[C@@H]2C[C@@H]3c4cccc5[nH]c(C)c(c45)C[C@H]3N(C)C2)nc(C)n1` [Example 4, N-(2',6'-dimethyl-4'-pyrimidyl)-2,6-dimethylergoline-8β-carboxamide], the ED50 under setting [1] lay in the range of 0.5 to 1 mg/kg. As to `CCCN1C[C@H](C(=O)Nc2cc(C)nc(C)n2)C[C@@H]2c3cccc4[nH]cc(c34)C[C@H]21` [Example 5, N-(2',6'-dimethyl-4'-pyrimidyl)-6-propylergoline-8β-carboxamide], the ED50 under setting [1] was 0.3 mg/kg.
